Data: PubChem BioAssay AID690 (Sanford-Burnham Center for Chemical Genomics, 2007)
The source made the active and inactive calls. How the calls were made is not given here.

Target: Alkaline phosphatase, placental type (Homo sapiens) (UniProt P05187)
Assay: inhibition of human placental alkaline phosphatase – biochemical, luminescence, HTS (AID 690)
Conditions: purified PLAP, luminescent substrate

Chain of Alkaline phosphatase, placental type (Homo sapiens) (P05187 whole entry, looked up): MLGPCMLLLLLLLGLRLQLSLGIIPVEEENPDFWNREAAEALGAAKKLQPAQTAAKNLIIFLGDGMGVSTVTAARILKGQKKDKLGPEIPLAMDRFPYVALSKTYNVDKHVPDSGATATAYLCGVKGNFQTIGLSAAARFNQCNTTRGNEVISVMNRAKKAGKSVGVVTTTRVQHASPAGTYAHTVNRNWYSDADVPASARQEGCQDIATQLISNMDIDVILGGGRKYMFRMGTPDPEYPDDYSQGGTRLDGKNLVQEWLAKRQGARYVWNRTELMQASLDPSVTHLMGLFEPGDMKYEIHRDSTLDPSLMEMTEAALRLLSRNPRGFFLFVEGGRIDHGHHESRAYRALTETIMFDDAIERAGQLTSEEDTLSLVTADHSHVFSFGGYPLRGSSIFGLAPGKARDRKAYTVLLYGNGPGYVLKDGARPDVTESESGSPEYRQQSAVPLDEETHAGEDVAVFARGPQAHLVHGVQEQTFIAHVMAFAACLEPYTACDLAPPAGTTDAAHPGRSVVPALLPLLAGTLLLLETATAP

SMILES	IC50
CCCc1[nH]nc2c1C(c1ccc(O)c(OC)c1)C(C#N)=C(N)O2 (stereo not given)	11.8 µM
c1ccc(CSCCc2ccncc2)cc1	2.01 µM
O=C1NC(=S)N/C1=C/c1cc([N+](=O)[O-])ccc1O	inactive
C=CCn1c(SCC(=O)c2ccc(O)c(O)c2)nnc1-c1ccccc1OC	1.55 µM
c1ccc(Nc2cccc(Nc3ccccc3)n2)cc1	65.4 µM
Oc1ccc(CC2CC3CCN2CC3)cc1O (stereo not given)	36 µM
CN(C)CCNc1ncnc2ccccc12	71.3 µM
O=c1sc2ccccc2n1COc1ccc(Cl)cc1	99.3 µM
Cc1nn(-c2ccccc2)c(C)c1/C=N/NC(=O)c1cc(-c2ccccc2)n[nH]1	7.34 µM
Cc1cc(C)nc(NN2C(=O)/C(=C/c3ccc(O)cc3)SC2=S)n1	18.8 µM
COC(=O)c1ccc2c(c1)C(C)(C)C(/C=C/c1ccccc1O)=[N+]2C	15 µM
Clc1ccc(CSCCc2ccncc2)cc1	5.76 µM
CCN1/C(=C\C=C\C2=[N+](CC)c3ccccc3C2(C)C)C(C)(C)c2ccccc21	22 µM
CN(C)c1ccc(/C=C/C(=O)c2cccc(Br)c2)cc1	35.5 µM
CC(C)C1N=C2c3ccccc3N=C(SCC(=O)c3ccc(O)c(O)c3)N2C1=O (stereo not given)	3.11 µM
Cc1cc2nc(C3CCN(Cc4nnnn4Cc4cccs4)CC3)[nH]c2cc1C	7.67 µM
CN1C(=O)/C(=C\c2ccc(N3CCCCC3)o2)C(=O)NC1=S	10.1 µM
CC(C)N=c1scc(-c2ccco2)n1/N=C/c1ccc(O)c(O)c1	4.97 µM
CN1/C(=C\C=C2\N=C(c3ccc(F)cc3)OC2=O)C(C)(C)c2ccccc21	35.7 µM
Cc1ccc(C)c(NC(=S)NC(NC(=O)Cc2cccc3ccccc23)C(Cl)(Cl)Cl)c1 (stereo not given)	27.5 µM
CCc1ccc(NSc2ccccc2[N+](=O)[O-])cc1	29.2 µM
CCN1/C(=C/c2ccc3ccccc3[n+]2CC)C=Cc2ccccc21	10.6 µM
CNc1nnc(-c2cc3ccccc3oc2=O)s1	2.85 µM
COC(=O)c1cn[nH]c1NC(=S)Nc1ccccc1C	19.3 µM
COc1cccc(OCCNc2cc(Cl)ccc2[N+](=O)[O-])c1	60.7 µM
C/C(=N\Nc1ccc([N+](=O)[O-])cc1)c1cccc(N)c1	51.9 µM
COc1cc(/C=C(/C(=O)c2cccs2)c2nc3ccccc3[nH]2)cc(OC)c1O	20.4 µM

SMILES	IC50
O=C1C2C3C=CC(C3)C2C(=O)N1c1n[nH]c(-c2ccccc2)n1 (stereo not given)	7.63 µM
CCOc1ccccc1OCc1nn2c(-c3ccc(C)cc3)nnc2s1	55.8 µM
O=C(CSc1n[nH]c(-c2ccccc2)n1)c1ccc(O)c(O)c1	11.1 µM
O=c1oc2cc(Cl)ccc2n1CSc1nc2ccccc2s1	85.6 µM
COCCNC(=O)NC1(C(F)(F)F)Oc2ccc(Cl)cc2O1 (stereo not given)	12.3 µM
CC(=O)Oc1cc2oc(=O)cc(C)c2cc1OC(C)=O	6.24 µM
CC1(C)Cc2c(sc3nc4n(c(=N)c23)CCCCC4)CO1	1.88 µM
CCCCOc1ccc(CSC(=N)N)cc1[N+](=O)[O-]	78.3 µM
O=C(Nc1cc(N2CCOCC2)ncn1)NC1(C(F)(F)F)Oc2ccc(Cl)cc2O1 (stereo not given)	12.7 µM
CCOc1cc(/C=C(/C#N)C(=O)Nc2ccc(O)cc2)cc(Br)c1O	48.5 µM
O=C1C2C3C=CC(C3)C2C(=O)N1c1n[nH]c(-c2cccnc2)n1 (stereo not given)	29.8 µM
CN(C)c1ccc(/C=C/c2cc[n+](C)cc2)cc1	17.3 µM
Cc1[nH]c2ccccc2c1/C=C/c1cc[n+](C)cc1	29.1 µM
O=C(NCc1cccnc1)NC1(C(F)(F)F)Oc2ccc(Cl)cc2O1 (stereo not given)	12.4 µM
CSc1cccc(NC(=O)/C=C/c2ccccc2)c1	75.8 µM
CN(C)c1ccc(/C=C/C=C2/SC(=S)N(c3ccccc3)C2=O)cc1	9.81 µM
COc1ccc(-n2nnnc2SCC(=O)c2ccc(O)c(O)c2)cc1	1.13 µM
O=C1C2CC=CCC2C(=O)N1c1n[nH]c(-c2ccccc2)n1 (stereo not given)	8.77 µM
Clc1ccc(CSc2nnnn2-c2ccc3c(c2)OCO3)c(Cl)c1	73.3 µM
CN1C(=O)/C(=C2/C=Cc3ccccc3N2CCCS(=O)(=O)O)SC1=S	15.2 µM
N#C/C(=C\c1ccc(O)c(O)c1)S(=O)(=O)c1ccccc1	4.1 µM
COc1cccc(-c2nnc3n2N=C(c2cccc(Br)c2)CS3)c1	76.1 µM
COCc1[nH]nc2c1C(c1cc(OC)c(O)c(OC)c1)C(C#N)=C(N)O2 (stereo not given)	23 µM
COC(=O)C(N)Cc1ccc(O)c(O)c1 (stereo not given)	10.2 µM
COC(=O)C1=C(O)/C(=C\c2ccc(O)c(OC)c2)N=C1C	28.8 µM
CCn1c(SCC(=O)c2ccc(O)c(O)c2)nnc1-c1ccccc1	4.25 µM
COc1ccc(-c2nnc(-c3ccc(Br)o3)o2)cc1OC	10.3 µM

SMILES	IC50
N#Cc1c(SCC(=O)OCc2ccccc2)nsc1SCC(=O)OCc1ccccc1	62.9 µM
O=C(CSc1nc2ccccc2c(=O)[nH]1)c1ccc(O)c(O)c1	9.59 µM
O=C(C[n+]1ccc(C(=O)N/N=C/c2ccc(Br)cc2)cc1)c1ccccc1	34.3 µM
O=C(CCCn1c(SCC(=O)c2ccc(O)c(O)c2)nc2ccccc2c1=O)NCC1CCCO1 (stereo not given)	3.45 µM
CCOC(=O)c1c(-n2c(C)cc(C=C3C(=O)NC(=S)NC3=O)c2C)sc2c1CCCC2	63.9 µM
COC(=O)c1ccc2c(c1)C(C)(C)C(/C=C/c1ccc(O)cc1)=[N+]2C	10.8 µM
c1ccc(-n2ncc3c2ncn2cnnc32)cc1	2.11 µM
CCCCOC(=O)C(C)Nc1n[nH]c(=S)[nH]c1=O (stereo not given)	43.3 µM
Clc1ccc(/C=C/c2nc3ccccc3[nH]2)c(Cl)c1	6.37 µM
COc1cc(/C=C2/CCC/C(=C\c3cc(O)c(OC)c(Cl)c3)C2=O)cc(Cl)c1O	28.2 µM
Oc1ccc(C2=Nn3c(nnc3-c3ccco3)SC2)cc1O	21.5 µM
CCOC(=O)SC1=N/C(=C\c2ccc(N(C)C)cc2)C(=O)S1	47.4 µM
CC1=NN(Cc2ccccc2)C(=O)/C1=C\c1ccc(N(C)C)cc1	18.3 µM
C=CCN1C(=O)NC2(O)C(=O)c3ccccc3C12O (stereo not given)	15.8 µM
O=P(O)(O)c1ccccc1OCc1ccccc1	8.43 µM
CCn1c(CSc2nc3ccccc3s2)nnc1SCC(=O)c1ccc(O)c(O)c1	1.52 µM
COc1cc(/C=C2\N=C3CCCCCN3C2=O)ccc1O	25.6 µM
O=C(NC1(C(F)(F)F)Oc2ccc(Cl)cc2O1)N1CCC2(CC1)OCCO2 (stereo not given)	4.87 µM
CN1c2ccccc2C(C)(C)[C@]12C=Cc1cc(O)ccc1O2	43.9 µM
O=C1Nc2ccc(Br)cc2/C1=N/N=C/C1=C(N2CCOCC2)C(=C\c2ccccc2)/CC1	45.6 µM
CCC1CCc2c(c3ccccc3[nH]c2=O)O1 (stereo not given)	14.1 µM
CCN1/C(=C/c2ccc3cccc(C)c3[n+]2CC)Sc2ccccc21	11.9 µM
CC1CCCC/C1=N/Nc1ccc([N+](=O)[O-])cc1[N+](=O)[O-] (stereo not given)	7.24 µM
O/N=C/c1cc(Cl)ccc1OCc1cccc2ccccc12	42.3 µM
CCn1c(SCC(=O)c2ccc(O)c(O)c2)nnc1-c1ccccc1OC	4.36 µM
Cc1cc([N+](=O)[O-])ccc1NCc1ccc2ccccc2c1	75 µM
